The values that follow come from ChEMBL document CHEMBL3507680, “University of Dundee, Gates Library screen for HepG2 cell viability”.

The structures appear in SMILES notation.

This series can be described thus: Human HepG2 cell viability assay in 384 well format. The series is classed as toxicity, cell-based. More on the design: dose 125 nL, time 70.5 hour; cytotoxicity at 70.5 h: concentration not given beside the values. Particulars: HepG2 cells, read-out: Inhibition.
Consider `COc1c(Br)c(C(=O)NC2CCCC2)nn1C`, for which the cytotoxicity at 70.5 h was -9.06%.
Consider `COc1c(Br)c(C(=O)NC2CC2)nn1C`, for which the cytotoxicity at 70.5 h was 0.124%.
In the case of `Cn1ncc(C(=O)N2CCOCC2)c1Cl`, the cytotoxicity at 70.5 h is -13.1%.
With `CC1CCCCN1C(=O)COCc1nc(-c2ccncc2)no1` (stereo not drawn) the figure was 4.94%; with `CN1CCN(C(=O)COCc2nc(-c3ccncc3)no2)CC1`, 17.1%; with `O=C(COCc1nc(-c2ccncc2)no1)N1CCCCC1`, -6.97%.
The result for `CCn1nc(C)c2nnn(CC(=O)Nc3ccc(C)cc3)c(=O)c21` reads -4.64%; that for `CCn1nc(C)c2nnn(CC(=O)Nc3ccc(C)c(C)c3)c(=O)c21`, -7.31%; that for `O=C(O)c1cnc(N2CCCC2)nc1COc1ccc(F)cc1`, -21.1%.
With `CCCNc1cc(C(=O)N2CCOCC2)nc(C)n1` the figure was -4.28%; with `Cc1nc(C(=O)N2CCOCC2)cc(N2CCC(C(N)=O)CC2)n1`, -0.347%.
Consider `COc1cccc(OCCc2nnc(NC(C)=O)s2)c1`, for which the cytotoxicity at 70.5 h was -6.24%.
In the case of `COCc1nc(N(C)C)ncc1C(=O)NC(C)c1ccccc1` (stereo not drawn), the cytotoxicity at 70.5 h was -5.51%.
With `CCc1c(O)nc2nc(N3CCOCC3)nn2c1C` the figure was -11%; with `CCc1c(O)nc2nc(N3CCCC3)nn2c1C`, -5.54%.
The result for `O=C(Nc1cc(-c2ccncc2)no1)C1CC1` reads -10.1%; that for `O=C(Nc1cc(-c2ccncc2)no1)C1CCC1`, -10.3%; that for `COc1c(C(=O)NCc2cnn(C)c2C)nnn1Cc1ccccc1`, 23%.
Take `COc1c(C(=O)NCc2cccnc2)nnn1Cc1ccccc1`: the cytotoxicity at 70.5 h is -7.04%.
With `Cc1cc(N2CCCN(c3ccnc(C)c3)CC2)ccn1` the figure was -7.78%; with `Cc1cccc(NC(=O)c2ccc(OCc3nnnn3C)cc2)n1`, 14.4%; with `COc1cc(-c2n[nH]c(CN)n2)cc(OC)c1OC`, 23.8%.
The result for `Oc1ccccc1-c1n[nH]c(C2CCCO2)n1` (stereo not drawn) reads 28.5%; that for `COCCCNC(=O)c1cc(C(C)C)nc(N2CCCCCC2)n1`, -8.22%; that for `COc1c(C(=O)NCc2cccnc2)nnn1Cc1ccc(C)cc1`, -15.1%.
Consider `CC(=O)Nc1ncc(S(=O)(=O)Nc2ccc(F)cc2)s1`, for which the cytotoxicity at 70.5 h worked out at 30.4%.
In the case of `CCn1c(Nc2ccccc2OC)nc2c(C)nn(C)c2c1=O`, the cytotoxicity at 70.5 h is 14%.
With `COc1cc2cc(C(=O)O)n(C)c2cc1OC` the figure was -14.4%.
Regarding `CCn1cc(CN(C)S(=O)(=O)c2ccc(NC(C)=O)cc2)cn1`, the cytotoxicity at 70.5 h turned out to be 26.5%.
The result for `CCN(CC)CCNC(=O)c1nn(CC)cc1Cl` reads 18.6%; that for `CCn1cc(N2Cc3nc(N4CCOCC4)ncc3C2=O)cn1`, 2.67%.
As for `CCn1cc(N2Cc3nc(N)ncc3C2=O)cn1`, the cytotoxicity at 70.5 h was 29.8%.
The result for `CCn1nc(C)c2nnn(CC(=O)Nc3c(C)cccc3C)c(=O)c21` reads 27.9%; that for `CSCc1cccc(S(=O)(=O)N2CCC(C)CC2)c1`, 8.82%; that for `Cc1nn(C)c2c(NCCCn3cccn3)ncnc12`, -6.36%.
With `Cc1nn(C)c2cnn(C(C)C(=O)NCc3cccnc3)c12` (stereo not drawn) the figure was -5.87%; with `Cc1cccnc1NC(=O)C(C)Cn1nc(C(F)(F)F)cc1C` (stereo not drawn), -4.08%.
Turning to `CCc1noc(C2CCCCN2C(=O)c2nnc3ccccc3n2)n1` (stereo not drawn), the cytotoxicity at 70.5 h came to 17.3%.
Turning to `CCc1noc(C2CCCCN2C(=O)c2ccn(C3CCCC3)n2)n1` (stereo not drawn), the cytotoxicity at 70.5 h was found to be 31%.
With `CCn1nc(C)c2ncnc(NCC(=O)N3CCOCC3)c21` the figure was -11.2%; with `CCn1nc(C)c2ncnc(NCCCN3CCOCC3)c21`, 6.44%; with `Cc1nn(C)c2c(N3CCN(C(=O)NC4CCCCC4)CC3)ncnc12`, 4.87%.
`Cc1nc(N2CCN(C(=O)C3CC3)CC2)c2c(n1)c(C)nn2C`: the cytotoxicity at 70.5 h worked out at 0.516%.
The result for `CCC(=O)Nc1nnc(CCOc2cccc(OC)c2)s1` reads 6.47%.
The result for `CCOCCCNC(=O)c1cc(C(C)C)nc(N2CCCCCC2)n1` reads 26.5%; that for `CCN(CC)CCNC(=O)c1cc(C(C)C)nc(N2CCCC2)n1`, 56.7%; that for `CCOCCCNC(=O)c1cc(C)nc(N2CCCC2)n1`, 21.7%.
The result for `Cc1ccc(CNC(=O)Cn2ncc3c2c(C)nn3C)cc1` reads -0.794%.
As to `Cc1nn(C)c2cnn(CC(=O)NCCc3ccccc3)c12`, the cytotoxicity at 70.5 h was -6.1%.
The result for `O=C1CC(c2ccc(F)c(F)c2)c2snc(C(=O)O)c2N1` (stereo not drawn) reads 8.54%; that for `Cc1ccc2cnn(CCC(=O)NCc3c(C)nn(C)c3C)c2c1`, -6.87%.
The result for `CCc1noc(C2CCN(C(=O)CCn3nc(C)cc3C)CC2)n1` reads -12.9%.
In the case of `CC1CCN(C(=O)c2ccn(COc3ccc(F)cc3)n2)CC1`, the cytotoxicity at 70.5 h was -6.36%.
The result for `CCCn1ccc(C(=O)N2CCC(C)CC2)n1` reads -11.6%; that for `Cc1nc(NCCc2ccc(Cl)cc2)cc(C(=O)N2CCCCC2)n1`, 13.8%; that for `Cc1nc(NCc2ccc(C)o2)cc(C(=O)N2CCOCC2)n1`, -9.84%.
The result for `O=C(COCc1nc(-c2ccncc2)no1)N1CCCC1` reads -4.88%.
With `O=C(COCc1nc(-c2ccncc2)no1)NC1CCCCC1` the figure was -2.53%; with `COc1ccc(OC)c(C(C)Nc2nc3c(C)nn(C)c3c(=O)n2C)c1` (stereo not drawn), 12.4%.
In the case of `CCCNC(=O)C(C)n1cc(Br)cn1` (stereo not drawn), the cytotoxicity at 70.5 h was -11.8%.
Turning to `COCCNC(=O)C(C)n1cc(Br)cn1` (stereo not drawn), the cytotoxicity at 70.5 h is -15.1%.
With `CCn1nc(C)c2nc(C(C)C)nc(N3CCCCC3)c21` the figure was -11.3%; with `CSCc1cccc(S(=O)(=O)NCCCn2ccnc2)c1`, -5.18%; with `CCN1CCN(S(=O)(=O)c2cc(Cl)c(Cl)cc2C)CC1`, -2.4%.
With `Cc1nccn1CC(=O)N1CC(Cc2nccc3ccn(C)c23)C1`, the cytotoxicity at 70.5 h was -9.67%.
With `CCn1cc(CN2C[C@@H]3CCCN3C[C@H]2CCSC)cn1` the figure was -7.68%.
With `Cc1cc(CCC(N)=O)cc(C2CCCN2Cc2ccnn2C)n1` (stereo not drawn) the figure was -6.78%.
Turning to `Cc1nc(C2CN(C)CCO2)cc(N2CCC(C(N)=O)CC2)n1` (stereo not drawn), the cytotoxicity at 70.5 h was -10.6%.
For `Cc1nc(Nc2ccccn2)cc(C2CCCN2C2CCOCC2)n1` (stereo not drawn), the cytotoxicity at 70.5 h is -10.7%.
As to `CCC(=O)N1CCC(c2cc(Nc3ncccn3)nc(C)n2)C1` (stereo not drawn), the cytotoxicity at 70.5 h was -10.9%.
The result for `CC(=O)N1CCC(N2CC(Cc3nccc4ccn(C)c34)C2)CC1` reads -6.03%.
In the case of `Cc1cc(N2CCCC2c2cc(Nc3cnccn3)nc(C)n2)ncn1` (stereo not drawn), the cytotoxicity at 70.5 h is -11.4%.
With `CC(=O)N1CCCC(c2ccc(C(N)=O)cn2)C1` (stereo not drawn) the figure was -8.88%.
As for `CC(C)S(=O)(=O)N1CCC(c2[nH]ncc2S(C)(=O)=O)C1` (stereo not drawn), the cytotoxicity at 70.5 h was -2.31%.
For the molecule `CN(C)C(=O)CN1CCCC(CCCc2ccccn2)(C(N)=O)C1` (stereo not drawn), the cytotoxicity at 70.5 h turned out to be 10.1%.
The result for `Cc1cccc(CN2CCCC2(C(N)=O)c2cnccn2)n1` (stereo not drawn) reads 19%; that for `CNCC(=O)N1CCCC(c2ccnc(Nc3cnccn3)n2)C1` (stereo not drawn), -9.17%.
The result for `CN1CCC(Cc2cc(Nc3ccccn3)ncn2)CC1` reads 10.1%; that for `Cc1c(C2CCCN(C(=O)c3cccnc3)C2)n2c(nc1=O)CCC2` (stereo not drawn), -8.11%.
`CNc1nccnc1C1CCN(C(C)C)CC1`: the cytotoxicity at 70.5 h is 12.4%.
As for `CN(C)C(=O)CN1CCCC1c1nccnc1Nc1ccccn1` (stereo not drawn), the cytotoxicity at 70.5 h was -8.51%.
With `CNc1cc(N2CCC(O)(CNC(=O)c3ccc(C)nc3)C2)ncn1` (stereo not drawn) the figure was -6.58%; with `CN(C)c1cncc(C2CCN(CC(N)=O)CC2)n1`, -0.457%; with `O=C(Cn1ccnc1)N1C[C@@H]2CC[C@H](Oc3ccccc3F)[C@@H]2C1`, 10.9%.
Regarding `Cc1noc(C)c1-c1cncc(CC2CCN(C(=O)c3cc[nH]n3)C2)n1` (stereo not drawn), the cytotoxicity at 70.5 h is -4.86%.
The result for `Cc1nnsc1C(=O)N1CCCC(n2nnc3cc(F)ccc32)C1` (stereo not drawn) reads -5.58%; that for `O=C(c1n[nH]cc1Cl)N1CCCC(n2nnc3cc(F)ccc32)C1` (stereo not drawn), -5.16%; that for `Cc1nn(C)cc1CN1CCc2nc(-c3cccnc3)nc(O)c2C1`, -3.92%.
Consider `CCn1ncc(CN2CCc3nc(-c4cccnc4)nc(O)c3C2)c1C`, for which the cytotoxicity at 70.5 h came to 9.93%.
The result for `Cc1ccc(O)c(CN2CCc3nc(-c4cccnc4)nc(O)c3C2)c1` reads -5.78%; that for `Cc1cc(-c2cnc(NC3CC3)nc2-c2ccoc2C)on1`, -5.1%; that for `Cc1cc(-c2cnc(NC3CC3)nc2-c2ccoc2)on1`, 2.18%.
As for `Cc1ncc(CN2CCc3c(nc(-c4ccccn4)[nH]c3=O)C2)n1C`, the cytotoxicity at 70.5 h was -8.75%.
For `Cc1n[nH]c(C)c1-c1nccnc1CC1CCN(S(C)(=O)=O)C1` (stereo not drawn), the cytotoxicity at 70.5 h is -7.83%.
In the case of `Cc1n[nH]c(C)c1-c1nccnc1CC1CCCN(C)C1` (stereo not drawn), the cytotoxicity at 70.5 h is -7.42%.
Consider `CN(C)c1cncc(C2CCN(CC3(O)CCCCC3)CC2)n1`, for which the cytotoxicity at 70.5 h turned out to be 25.1%.
In the case of `CC(=O)N1CCCC1c1cccc(NCc2ccccc2F)n1` (stereo not drawn), the cytotoxicity at 70.5 h is -1.09%.
The result for `O=C(C1CCCC1)N1CCOC(c2nc(-c3ncccn3)no2)C1` (stereo not drawn) reads -4.9%; that for `Cc1cc(CCC(=O)Nc2nncs2)nc(C2CCCN2)n1` (stereo not drawn), 1.25%.
The result for `O=C(NCCn1nc(C2CCNC2)c2cccnc21)C1CC1` (stereo not drawn) reads -1.28%; that for `O=C(NCCn1nc(C2CCNC2)c2cccnc21)C1CCC1` (stereo not drawn), 2.22%; that for `COCC(=O)N1CCCC(c2cc(C(F)F)n3ncnc3n2)C1` (stereo not drawn), -2.53%.
With `Cc1nc(Nc2cnccn2)cc(C2CCN(CCO)C2)n1` (stereo not drawn) the figure was -9.95%.
